Results taken from PubChem BioAssay (NCI).
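48-hour exposure; five concentrations; linearly interpolated endpoints. GI50 = concentration required for 50% inhibition of growth. TGI: concentration producing complete growth inhibition.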

Experiments:
Assay in all cases: DTP human tumour cell line panel, 48 h
PC-3 prostate = tested on: PC-3 prostate
EKVX NSCLC = tested on: EKVX NSCLC
OVCAR-4 ovarian = tested on: OVCAR-4 ovarian
RXF 393 renal = tested on: RXF 393 renal
SK-MEL-2 melanoma = tested on: SK-MEL-2 melanoma
CAKI-1 renal = tested on: CAKI-1 renal
HS 578T breast = tested on: HS 578T breast
MDA-MB-435 = tested on: MDA-MB-435
SF-295 CNS = tested on: SF-295 CNS
A549 NSCLC = tested on: A549 NSCLC

## COC(=O)c1c(OC(C)=O)ccc2c1c1c(n2C)C(=O)c2ccccc2C1=O
PC-3 prostate
  TGI: 88.1 µM
EKVX NSCLC
  TGI: 92.7 µM
OVCAR-4 ovarian
  TGI: > 100 µM
RXF 393 renal
  TGI: > 100 µM
SK-MEL-2 melanoma
  TGI: 96.1 µM
CAKI-1 renal
  TGI: 61.7 µM
HS 578T breast
  TGI: 39.1 µM
MDA-MB-435
  TGI: > 100 µM
SF-295 CNS
  TGI: 67.8 µM
A549 NSCLC
  TGI: 80.8 µM

## CC1(C)CC(C)(C)C1=NNC(N)=O
PC-3 prostate
  TGI: > 100 µM
EKVX NSCLC
  TGI: > 100 µM
OVCAR-4 ovarian
  TGI: > 100 µM
RXF 393 renal
  TGI: > 100 µM
SK-MEL-2 melanoma
  TGI: > 100 µM
CAKI-1 renal
  TGI: > 100 µM
HS 578T breast
  TGI: > 100 µM
MDA-MB-435
  TGI: > 100 µM
SF-295 CNS
  TGI: > 100 µM
A549 NSCLC
  TGI: > 100 µM

## O=C(Nc1nc2ccccc2s1)c1cc([N+](=O)[O-])ccc1Cl
PC-3 prostate
  TGI: > 70.3 µM
EKVX NSCLC
  TGI: > 100 µM
OVCAR-4 ovarian
  TGI: > 100 µM
RXF 393 renal
  TGI: 15.9 µM
SK-MEL-2 melanoma
  TGI: > 100 µM
CAKI-1 renal
  TGI: > 100 µM
HS 578T breast
  TGI: 15.7 µM
MDA-MB-435
  TGI: > 100 µM
SF-295 CNS
  TGI: > 100 µM
A549 NSCLC
  TGI: > 100 µM

## C[C@@H]1CC[C@H]2C(C(O)CCCCC(O)C3=C(C(F)(F)F)O[C@@H]4O[C@@]5(C)CC[C@H]6[C@H](C)CC[C@@H]3[C@@]46OO5)=C(C(F)(F)F)O[C@@H]3O[C@@]4(C)CC[C@@H]1[C@]32OO4 (stereo not given in full)
PC-3 prostate
  GI50: 3.96 µM
  TGI: > 100 µM
EKVX NSCLC
  GI50: 31.9 µM
  TGI: > 100 µM
OVCAR-4 ovarian
  GI50: 28.5 µM
  TGI: > 100 µM
RXF 393 renal
  GI50: 9.06 µM
  TGI: > 100 µM
SK-MEL-2 melanoma
  GI50: > 100 µM
  TGI: > 100 µM
CAKI-1 renal
  GI50: 5.72 µM
  TGI: > 100 µM
HS 578T breast
  GI50: 37.8 µM
  TGI: > 100 µM
MDA-MB-435
  GI50: 10.5 µM
  TGI: > 100 µM
SF-295 CNS
  GI50: 53.7 µM
  TGI: > 100 µM
A549 NSCLC
  GI50: 8.87 µM
  TGI: > 100 µM

## CCOC(=O)c1cc2c(C(=O)c3ccc([N+](=O)[O-])cc3)c(C(C)=O)ccc2[nH]1
PC-3 prostate
  TGI: > 100 µM
EKVX NSCLC
  TGI: > 100 µM
OVCAR-4 ovarian
  TGI: > 100 µM
RXF 393 renal
  TGI: 80.5 µM
SK-MEL-2 melanoma
  TGI: > 100 µM
CAKI-1 renal
  TGI: > 100 µM
HS 578T breast
  TGI: 50.1 µM
MDA-MB-435
  TGI: > 100 µM
SF-295 CNS
  TGI: > 100 µM
A549 NSCLC
  TGI: > 100 µM

## CSC1=N/C(=C\c2ccco2)C(=O)N1CN1CCOCC1
PC-3 prostate
  TGI: > 100 µM
EKVX NSCLC
  TGI: > 100 µM
OVCAR-4 ovarian
  TGI: > 100 µM
RXF 393 renal
  TGI: 44.6 µM
SK-MEL-2 melanoma
  TGI: > 100 µM
CAKI-1 renal
  TGI: > 100 µM
HS 578T breast
  TGI: > 100 µM
MDA-MB-435
  TGI: > 100 µM
SF-295 CNS
  TGI: > 100 µM
A549 NSCLC
  TGI: > 100 µM

## Cc1c(NC(=O)CSC(=S)N2CCN(Cc3ccccc3)CC2)c(=O)n(-c2ccccc2)n1C
PC-3 prostate
  TGI: > 100 µM
EKVX NSCLC
  TGI: > 100 µM
OVCAR-4 ovarian
  TGI: > 100 µM
RXF 393 renal
  TGI: > 100 µM
SK-MEL-2 melanoma
  TGI: > 100 µM
CAKI-1 renal
  TGI: > 100 µM
HS 578T breast
  TGI: > 100 µM
MDA-MB-435
  TGI: > 100 µM
SF-295 CNS
  TGI: > 100 µM
A549 NSCLC
  TGI: > 100 µM

## Cc1ccc2c(c1C)C(=O)/C(=C/c1ccccc1C(=O)O)C2
PC-3 prostate
  TGI: > 100 µM
EKVX NSCLC
  TGI: > 100 µM
OVCAR-4 ovarian
  TGI: > 100 µM
RXF 393 renal
  TGI: > 100 µM
SK-MEL-2 melanoma
  TGI: > 100 µM
CAKI-1 renal
  TGI: > 100 µM
HS 578T breast
  TGI: > 100 µM
MDA-MB-435
  TGI: > 100 µM
SF-295 CNS
  TGI: > 100 µM
A549 NSCLC
  TGI: > 100 µM

## O=C(OCCN=c1c2ccccc2ccc2ccccc12)c1ccc([N+](=O)[O-])cc1
PC-3 prostate
  TGI: > 100 µM
EKVX NSCLC
  TGI: > 100 µM
OVCAR-4 ovarian
  TGI: > 100 µM
RXF 393 renal
  TGI: > 100 µM
SK-MEL-2 melanoma
  TGI: > 100 µM
CAKI-1 renal
  TGI: > 100 µM
HS 578T breast
  TGI: > 100 µM
MDA-MB-435
  TGI: > 100 µM
SF-295 CNS
  TGI: > 100 µM
A549 NSCLC
  TGI: > 100 µM

## S=C1SCN(Cc2ccco2)CN1c1ccc(Br)cc1
PC-3 prostate
  TGI: 37 µM
EKVX NSCLC
  TGI: 64.6 µM
OVCAR-4 ovarian
  TGI: 37.5 µM
RXF 393 renal
  TGI: > 100 µM
SK-MEL-2 melanoma
  TGI: 32 µM
CAKI-1 renal
  TGI: 42.7 µM
HS 578T breast
  TGI: > 100 µM
MDA-MB-435
  TGI: 36 µM
SF-295 CNS
  TGI: 28.7 µM
A549 NSCLC
  TGI: 54.3 µM

## C/C=C(/C)C(=O)O[C@H](C[C@@H](C)[C@H]1CC(c2ccoc2)OC1=O)[C@@]1(C)C(=O)CCC2O[C@]21C (stereo not given in full)
PC-3 prostate
  TGI: > 100 µM
EKVX NSCLC
  TGI: > 100 µM
OVCAR-4 ovarian
  TGI: > 100 µM
RXF 393 renal
  TGI: > 100 µM
SK-MEL-2 melanoma
  TGI: > 100 µM
CAKI-1 renal
  TGI: > 100 µM
HS 578T breast
  TGI: > 100 µM
MDA-MB-435
  TGI: > 100 µM
SF-295 CNS
  TGI: > 100 µM
A549 NSCLC
  TGI: > 100 µM

## CC1=NN(c2nc(N)nc(/C(C#N)=C/c3cccn3-c3cc(Cl)cc(Cl)c3)n2)C(C)(C)C1
PC-3 prostate
  TGI: > 100 µM
EKVX NSCLC
  TGI: > 100 µM
OVCAR-4 ovarian
  TGI: > 100 µM
RXF 393 renal
  TGI: > 100 µM
SK-MEL-2 melanoma
  TGI: > 100 µM
CAKI-1 renal
  TGI: > 100 µM
HS 578T breast
  TGI: > 100 µM
MDA-MB-435
  TGI: > 100 µM
SF-295 CNS
  TGI: > 100 µM
A549 NSCLC
  TGI: > 100 µM

## COC(=O)[C@H]1CO[C@H]2C/C(C)=C/CC/C(C)=C/CC[C@@]3(C)O[C@@H]3C[C@H]21
PC-3 prostate
  TGI: > 50 µM
EKVX NSCLC
  TGI: > 50 µM
OVCAR-4 ovarian
  TGI: > 50 µM
RXF 393 renal
  TGI: 42.6 µM
SK-MEL-2 melanoma
  TGI: > 50 µM
CAKI-1 renal
  TGI: > 50 µM
HS 578T breast
  TGI: 36.5 µM
MDA-MB-435
  TGI: 25.1 µM
SF-295 CNS
  TGI: > 50 µM
A549 NSCLC
  TGI: > 50 µM

## CCOC(=O)c1c(N2CCCC2)ncn(Cc2ccccc2)c1=S
PC-3 prostate
  TGI: > 100 µM
EKVX NSCLC
  TGI: > 100 µM
OVCAR-4 ovarian
  TGI: > 100 µM
RXF 393 renal
  TGI: > 100 µM
SK-MEL-2 melanoma
  TGI: > 100 µM
CAKI-1 renal
  TGI: 88.3 µM
HS 578T breast
  TGI: > 100 µM
MDA-MB-435
  TGI: > 100 µM
SF-295 CNS
  TGI: > 100 µM
A549 NSCLC
  TGI: > 100 µM

## CC(=O)c1c(C(F)(F)F)n([O-])c2cc(Cl)c(Cl)cc2[n+]1=O
PC-3 prostate
  TGI: 3.09 µM
EKVX NSCLC
  TGI: 2.89 µM
OVCAR-4 ovarian
  TGI: 2.73 µM
RXF 393 renal
  TGI: 2.51 µM
SK-MEL-2 melanoma
  TGI: 2.72 µM
CAKI-1 renal
  TGI: 3.33 µM
HS 578T breast
  TGI: 2.38 µM
MDA-MB-435
  TGI: 2.67 µM
SF-295 CNS
  TGI: 2.27 µM
A549 NSCLC
  TGI: 1.91 µM

## CCN(CC)c1ccc2cc(C(=O)Nc3cccc4ccccc34)c(=N)oc2c1
PC-3 prostate
  TGI: > 100 µM
EKVX NSCLC
  TGI: > 100 µM
OVCAR-4 ovarian
  TGI: > 100 µM
RXF 393 renal
  TGI: > 100 µM
SK-MEL-2 melanoma
  TGI: > 100 µM
CAKI-1 renal
  TGI: > 100 µM
HS 578T breast
  TGI: > 100 µM
MDA-MB-435
  TGI: > 100 µM
SF-295 CNS
  TGI: > 100 µM
A549 NSCLC
  TGI: > 100 µM

## O=C1/C(=N\S(=O)(=O)c2ccccc2)C([n+]2ccc(Cc3ccccc3)cc2)=C([O-])c2ccccc21
PC-3 prostate
  TGI: 9.39 µM
EKVX NSCLC
  TGI: 3.27 µM
OVCAR-4 ovarian
  TGI: 3.13 µM
RXF 393 renal
  TGI: 6.59 µM
SK-MEL-2 melanoma
  TGI: 3 µM
CAKI-1 renal
  TGI: 3.44 µM
HS 578T breast
  TGI: 6.09 µM
MDA-MB-435
  TGI: 0.377 µM
SF-295 CNS
  TGI: 3.22 µM
A549 NSCLC
  TGI: 3.74 µM

## CC1(O)CC(=O)c2c(cc3ccc(-c4c5c(c(O)c6c(O)cccc46)C(=O)CC(C)(O)C5)c(O)c3c2O)C1 (stereo not given)
PC-3 prostate
  TGI: 11.2 µM
EKVX NSCLC
  TGI: 4.35 µM
OVCAR-4 ovarian
  TGI: 12.9 µM
RXF 393 renal
  TGI: 1.11 µM
SK-MEL-2 melanoma
  TGI: 0.897 µM
CAKI-1 renal
  TGI: 2.92 µM
HS 578T breast
  TGI: 4.4 µM
MDA-MB-435
  TGI: 1.97 µM
SF-295 CNS
  TGI: 0.874 µM
A549 NSCLC
  TGI: 11.1 µM

## CC(=O)Nc1ccc(OC2=CCN(C)CC2)cc1
PC-3 prostate
  TGI: > 100 µM
EKVX NSCLC
  TGI: > 100 µM
OVCAR-4 ovarian
  TGI: > 100 µM
RXF 393 renal
  TGI: > 100 µM
SK-MEL-2 melanoma
  TGI: > 100 µM
CAKI-1 renal
  TGI: > 100 µM
HS 578T breast
  TGI: > 100 µM
MDA-MB-435
  TGI: > 100 µM
SF-295 CNS
  TGI: > 100 µM
A549 NSCLC
  TGI: > 100 µM
